Source: BigSolDB 2.1

CN1CC(=O)N2[C@H](c3ccc4c(c3)OCO4)c3[nH]c4ccccc4c3C[C@@H]2C1=O
solubility (mole fraction)
Details	298.15 K	303.15 K	308.15 K	313.15 K	318.15 K	323.15 K	328.15 K	333.15 K
in transcutol	0.00876	0.00973	0.0107	0.0119	0.0133	0.0149	0.0166	0.0182
in water	5.74e-07	7.59e-07	1.02e-06	1.34e-06	1.75e-06	2.26e-06	2.77e-06	3.45e-06
